Measured values published in ChEMBL document CHEMBL1201862, “PubChem BioAssay data set” (2004).
Calls of active or inactive are those of the source.

Columns and labels:
[1] = biological target: T1, Sentrin-specific protease 8 (Homo sapiens, UniProt Q96LD8); format: functional;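 also: kinetic enzyme assay of SENP8 cleaving a Nedd8 protein substrate, dose-response confirmation of screening hits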
T1 sequence (Q96LD8 whole entry): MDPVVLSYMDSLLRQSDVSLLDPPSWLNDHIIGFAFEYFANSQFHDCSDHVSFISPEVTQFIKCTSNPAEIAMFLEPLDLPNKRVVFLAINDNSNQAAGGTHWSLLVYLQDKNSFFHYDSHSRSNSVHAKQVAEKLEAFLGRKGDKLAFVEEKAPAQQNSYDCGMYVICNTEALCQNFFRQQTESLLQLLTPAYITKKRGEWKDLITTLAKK

[2] = biological target: T2, Mannose-6-phosphate isomerase (Homo sapiens, UniProt P34949); assay: MPI inhibition at elevated mannose 6-phosphate – biochemical, fluorescence intensity, high mannose 6-phosphate, primary screen (AID 1220)
T2 sequence (P34949 whole entry): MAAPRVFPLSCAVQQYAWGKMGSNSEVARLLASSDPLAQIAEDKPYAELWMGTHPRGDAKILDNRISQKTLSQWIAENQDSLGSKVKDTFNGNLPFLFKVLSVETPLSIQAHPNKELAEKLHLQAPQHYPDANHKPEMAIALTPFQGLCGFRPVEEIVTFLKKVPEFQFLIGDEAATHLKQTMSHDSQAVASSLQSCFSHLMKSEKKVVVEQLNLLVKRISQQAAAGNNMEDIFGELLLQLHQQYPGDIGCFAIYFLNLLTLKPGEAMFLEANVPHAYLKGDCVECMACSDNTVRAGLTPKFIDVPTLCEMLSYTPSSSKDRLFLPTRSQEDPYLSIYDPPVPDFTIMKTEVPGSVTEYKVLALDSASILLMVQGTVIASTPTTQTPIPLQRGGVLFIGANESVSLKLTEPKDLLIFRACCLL

Keap1/Nrf2 = Keap1/Nrf2 (Homo sapiens, UniProt Q14145); assay: disruptors of Keap1 binding to Nrf2 peptide – biochemical, fluorescence polarization, cherry-picked samples, dose response (AID 588683)
Sequence of Keap1/Nrf2 (Q16236 whole entry): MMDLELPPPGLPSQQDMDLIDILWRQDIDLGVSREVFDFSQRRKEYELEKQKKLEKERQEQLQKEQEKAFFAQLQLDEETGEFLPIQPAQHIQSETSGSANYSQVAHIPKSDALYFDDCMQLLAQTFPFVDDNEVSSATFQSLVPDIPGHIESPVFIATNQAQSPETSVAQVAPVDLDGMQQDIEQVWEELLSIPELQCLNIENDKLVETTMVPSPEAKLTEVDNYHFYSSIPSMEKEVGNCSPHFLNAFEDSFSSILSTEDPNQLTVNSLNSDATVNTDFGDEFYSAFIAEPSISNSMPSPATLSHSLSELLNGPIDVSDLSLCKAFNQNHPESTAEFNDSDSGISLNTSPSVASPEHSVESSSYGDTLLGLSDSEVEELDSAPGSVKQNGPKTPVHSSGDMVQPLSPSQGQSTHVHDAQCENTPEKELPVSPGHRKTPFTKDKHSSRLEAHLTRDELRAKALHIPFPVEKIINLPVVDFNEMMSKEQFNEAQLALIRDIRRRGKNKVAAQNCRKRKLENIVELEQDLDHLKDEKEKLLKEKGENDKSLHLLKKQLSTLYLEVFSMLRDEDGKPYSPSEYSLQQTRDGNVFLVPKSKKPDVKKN
Sequence of Keap1/Nrf2 (Q14145 whole entry): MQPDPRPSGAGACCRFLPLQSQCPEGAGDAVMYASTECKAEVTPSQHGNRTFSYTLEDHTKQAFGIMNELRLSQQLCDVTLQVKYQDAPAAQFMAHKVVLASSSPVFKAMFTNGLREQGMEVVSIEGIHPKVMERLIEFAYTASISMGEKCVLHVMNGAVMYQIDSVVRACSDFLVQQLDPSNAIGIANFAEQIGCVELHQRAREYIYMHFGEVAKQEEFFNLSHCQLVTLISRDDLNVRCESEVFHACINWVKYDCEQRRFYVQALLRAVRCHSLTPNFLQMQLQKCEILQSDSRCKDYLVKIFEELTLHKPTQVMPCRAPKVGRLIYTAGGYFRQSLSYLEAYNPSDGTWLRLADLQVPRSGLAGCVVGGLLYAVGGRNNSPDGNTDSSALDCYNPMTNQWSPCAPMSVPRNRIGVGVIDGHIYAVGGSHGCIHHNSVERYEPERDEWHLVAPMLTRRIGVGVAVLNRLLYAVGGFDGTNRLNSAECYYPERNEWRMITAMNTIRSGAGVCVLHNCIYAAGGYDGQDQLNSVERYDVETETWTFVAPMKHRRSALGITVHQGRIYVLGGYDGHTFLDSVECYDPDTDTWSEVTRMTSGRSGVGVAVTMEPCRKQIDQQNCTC

[3] = biological target: Delta-type opioid receptor (Homo sapiens, UniProt P41143); assay: HTS Image-Based Screen for Agonists of the DOR Receptor. [Related pubchem assays (depositor defined):AID1777, AID1786, AID2133]; format: functional
Sequence of Delta-type opioid receptor (P41143 whole entry): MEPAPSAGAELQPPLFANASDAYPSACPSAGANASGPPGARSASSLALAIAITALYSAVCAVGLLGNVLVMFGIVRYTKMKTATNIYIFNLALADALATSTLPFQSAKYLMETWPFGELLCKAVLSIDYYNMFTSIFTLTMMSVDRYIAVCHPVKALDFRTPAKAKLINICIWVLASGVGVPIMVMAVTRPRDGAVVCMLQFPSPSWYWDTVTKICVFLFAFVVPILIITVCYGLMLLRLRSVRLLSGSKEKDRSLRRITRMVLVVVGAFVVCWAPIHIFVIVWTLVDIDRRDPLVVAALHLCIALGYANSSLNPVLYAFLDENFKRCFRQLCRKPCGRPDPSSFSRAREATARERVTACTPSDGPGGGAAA

[4] = biological target: Kappa-type opioid receptor (Homo sapiens, UniProt P41145); format: functional
Sequence of Kappa-type opioid receptor (P41145 whole entry, the tested form may be a part): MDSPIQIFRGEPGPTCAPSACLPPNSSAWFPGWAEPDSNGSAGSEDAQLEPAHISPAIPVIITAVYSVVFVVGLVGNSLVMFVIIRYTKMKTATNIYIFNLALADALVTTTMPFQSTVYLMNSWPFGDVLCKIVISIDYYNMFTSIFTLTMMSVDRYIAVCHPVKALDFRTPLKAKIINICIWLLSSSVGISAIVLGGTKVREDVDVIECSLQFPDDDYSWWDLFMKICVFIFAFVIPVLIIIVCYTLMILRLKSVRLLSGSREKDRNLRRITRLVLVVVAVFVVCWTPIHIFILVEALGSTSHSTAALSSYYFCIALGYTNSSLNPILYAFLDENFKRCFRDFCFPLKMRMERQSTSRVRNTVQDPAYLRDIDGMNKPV

CHO = CHO cell viability loss, potency – luminescence, cytotoxicity control for TLR9-MyD88 binding inhibitor project, dose response (AID 588339); format: functional, cell-based, hamster; details: Cricetulus griseus;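 also: CHO cells stably coexpressing TLR9 and MyD88 fusions from primary screen; compound exposure lasted 48 hours before viability readout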
Caspase-6 = biological target: T3, Caspase-6 (Homo sapiens, UniProt P55212); assay: inhibition of CASP6 peptide cleavage – biochemical, VEID-R110 fluorescence, cherry-pick, dose response (AID 720632)
T3 sequence (P55212 whole entry): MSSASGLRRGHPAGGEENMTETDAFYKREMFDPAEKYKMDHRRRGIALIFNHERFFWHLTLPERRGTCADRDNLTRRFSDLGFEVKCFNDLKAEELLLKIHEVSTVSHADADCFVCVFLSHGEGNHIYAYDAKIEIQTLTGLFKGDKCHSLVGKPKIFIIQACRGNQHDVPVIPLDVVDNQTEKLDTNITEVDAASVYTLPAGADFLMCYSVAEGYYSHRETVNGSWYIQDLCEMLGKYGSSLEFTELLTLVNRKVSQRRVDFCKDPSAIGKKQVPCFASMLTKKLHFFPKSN

[5] = HIV-1 AD8 envelope cell-cell fusion blockers – cherry-pick, dose response (AID 652062); format: functional, cell-based;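 also: luciferase signal from cell-cell fusion driven by HIV-1 clade B AD8 Env; potency is for inhibitors of fusion seen as a drop in luminescence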
[6] = biological target: T4, Sphingosine 1-phosphate receptor 4 (Homo sapiens, UniProt O95977); assay: Fluorescence dose response cell-based high throughput screening assay for antagonists of the Sphingosine 1-Phosphate Receptor 4 (S1P4). [Related pubchem assays: 1524 (Confirmation in triplicates.), 1510 (Primary screen.)]; format: functional
T4 sequence (O95977 whole entry): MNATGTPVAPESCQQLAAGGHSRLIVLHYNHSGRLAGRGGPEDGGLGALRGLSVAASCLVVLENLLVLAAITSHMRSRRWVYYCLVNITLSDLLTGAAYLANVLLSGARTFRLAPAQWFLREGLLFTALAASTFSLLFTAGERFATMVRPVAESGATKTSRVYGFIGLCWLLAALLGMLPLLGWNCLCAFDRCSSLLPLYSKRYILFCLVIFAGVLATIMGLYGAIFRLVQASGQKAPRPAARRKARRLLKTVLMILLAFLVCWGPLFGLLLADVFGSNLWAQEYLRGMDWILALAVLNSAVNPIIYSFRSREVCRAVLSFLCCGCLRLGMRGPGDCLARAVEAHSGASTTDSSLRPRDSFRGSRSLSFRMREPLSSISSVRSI

O=C1c2cc(F)ccc2-n2c1nc1ccccc1c2=O
IC50 [1]: 985 nM (active)

CCOC(=O)C1=C(c2ccc(OC)cc2)C(=O)c2ccccc2C1=O
IC50 [2]: > 50 µM (not active)

COCCCNC(=O)c1ccc2c3c(onc13)-c1ccccc1C2=O
AC50 (Keap1/Nrf2): 1.73 µM (active)

CCC(=O)OCCNc1cc(Sc2nccn2C)c2nonc2c1[N+](=O)[O-]
EC50 [3]: > 32 µM (inactive) | IC50 [4]: 22.7 µM | IC50 (CHO): 2.38 µM (active)

CCCCn1c(NC(=O)c2ccccc2Cl)c(C#N)c2nc3ccccc3nc21
AC50 (Caspase-6): 14.1 µM (active)

O=C1C(=O)c2ccccc2-c2ccccc21 [9,10-PHENANTHRENEQUINONE]
AC50 [5]: 2.66 µM (active) | IC50 [6]: 2.03 µM (active)
